Molecular target: T1, Aconitase (AcnA) (Escherichia coli, UniProt P25516)
T1 construct: cell-free (PUREfrex) synthesis, N-His6 tag removed with HRV protease, [4Fe-4S] cluster matured by SUF system
Test: LC-MS of citrate consumption, isocitrate dehydrogenase-coupled
Assay type: biochemical
Conditions: coupled with NADP-dependent isocitrate dehydrogenase

T1 sequence (P25516 2-891): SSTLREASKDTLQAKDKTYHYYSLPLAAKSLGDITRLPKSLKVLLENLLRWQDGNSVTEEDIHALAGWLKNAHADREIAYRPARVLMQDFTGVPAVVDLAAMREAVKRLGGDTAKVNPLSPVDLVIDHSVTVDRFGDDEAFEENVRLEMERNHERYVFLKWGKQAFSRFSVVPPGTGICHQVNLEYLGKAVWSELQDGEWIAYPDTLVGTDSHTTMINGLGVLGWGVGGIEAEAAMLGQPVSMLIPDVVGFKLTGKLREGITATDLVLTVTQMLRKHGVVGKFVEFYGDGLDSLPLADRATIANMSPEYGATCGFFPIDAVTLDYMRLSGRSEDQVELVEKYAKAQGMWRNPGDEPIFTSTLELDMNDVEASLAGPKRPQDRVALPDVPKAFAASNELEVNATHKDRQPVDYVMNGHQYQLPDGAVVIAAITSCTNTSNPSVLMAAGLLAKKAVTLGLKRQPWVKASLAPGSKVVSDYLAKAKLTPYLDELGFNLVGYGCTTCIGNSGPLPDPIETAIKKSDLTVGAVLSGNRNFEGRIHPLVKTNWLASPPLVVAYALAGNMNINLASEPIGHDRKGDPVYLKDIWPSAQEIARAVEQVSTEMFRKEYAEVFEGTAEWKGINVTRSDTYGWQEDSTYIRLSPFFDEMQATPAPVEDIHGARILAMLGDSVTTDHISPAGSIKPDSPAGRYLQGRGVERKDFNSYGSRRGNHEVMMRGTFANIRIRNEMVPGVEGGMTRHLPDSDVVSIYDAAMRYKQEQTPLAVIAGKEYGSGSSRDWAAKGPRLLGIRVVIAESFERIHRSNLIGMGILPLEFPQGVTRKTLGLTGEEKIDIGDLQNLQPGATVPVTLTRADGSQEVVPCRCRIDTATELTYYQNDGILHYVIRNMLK

## O=C(O)CC(O)(CC(=O)O)C(=O)O [citrate]
  LC-MS of citrate consumption, isocitrate dehydrogenase-coupled: concurring citrate consumption and alpha-ketoglutarate production in the assays with AcnA purified

Source: PMC10594875, “One-Pot De Novo Synthesis of [4Fe-4S] Proteins Using a Recombinant SUF System under Aerobic Conditions” (ACS Synthetic Biology, 2023)
